Calls of active or inactive are those of the source. The rule behind the calls is not given here.
Assays:
[1] = test system: IGROV-1; assay: Induction of EGFR antibody accumulation on human IGROV1 cell surface assessed as ternary complex formation in presence of excess folate by fluorescence microscopy; assay type: functional, tissue-based
[2] = test system: IGROV-1; assay: Induction of EGFR antibody accumulation on human IGROV1 cell surface assessed as ternary complex formation by fluorescence microscopy; assay type: functional
[3] = test system: A549; assay: Induction of EGFR antibody accumulation on human A549 cell surface assessed as ternary complex formation by fluorescence microscopy; assay type: functional, tissue-based
[4] = test system: IGROV-1; assay: Induction of CD20 antibody recruitment on human IGROV1 cell surface by flow cytometry analysis; assay type: functional, tissue-based
[5] = test system: IGROV-1; assay: Induction of CD20 antibody accumulation on human IGROV1 cell surface assessed as ternary complex formation in presence of excess folate by fluorescence microscopy; assay type: functional, tissue-based
[6] = Inhibition of antibody-dependent cell-mediated cytotoxicity in human IGROV1 cells incubated for 10 mins followed by addition of KHYG-1/FC-gamma-3A-158V by LDH assay; assay type: functional, cell-based; conditions: IGROV-1, 10 min
[7] = test system: IGROV-1; assay: Induction of CD20 antibody accumulation on human IGROV1 cell surface assessed as ternary complex formation by fluorescence microscopy; assay type: functional
[8] = test system: IGROV-1; assay: Induction of CD20 antibody recruitment on human IGROV1 cell surface assessed as ternary complex formation by fluorescence microscopy; assay type: functional

SMILES	Activity [1]	Activity [2]	Activity [3]	Activity [4]	Activity [5]	IC50 [6] [nM]	Activity [7]	Activity [8]
CC(C)C[C@@H]1NC(=O)[C@H](Cc2c[nH]cn2)NC(=O)[C@H](Cc2c[nH]c3ccccc23)NC(=O)[C@H](C)NC(=O)[C@@H](NC(=O)[C@H](CC(=O)O)NC(=O)CCOCCOCCOCCOCCOCCOCCNC(=O)CCC(NC(=O)c2ccc(NCc3cnc4[nH]c(N)nc(=O)c4n3)cc2)C(=O)O)CSSC[C@@H](C(=O)N[C@H](C(N)=O)[C@@H](C)O)NC(=O)[C@H](Cc2c[nH]c3ccccc23)NC(=O)[C@H](C(C)C)NC(=O)[C@H](CC(C)C)NC(=O)[C@H](CCC(=O)O)NC(=O)CNC1=O (some centres undefined)	inactive	Active	inactive	Active	inactive	0.4		
CC(C)C[C@@H]1NC(=O)[C@H](Cc2c[nH]cn2)NC(=O)[C@H](Cc2c[nH]c3ccccc23)NC(=O)[C@H](C)NC(=O)[C@@H](NC(=O)[C@H](CC(=O)O)NC(=O)CCOCCOCCOCCOCCOCCOCCNC(=O)C(CCCCNC(=O)c2ccc(-c3c4ccc(=[N+](C)C)cc-4oc4cc(N(C)C)ccc34)c(C(=O)[O-])c2)NC(=O)CCC(NC(=O)c2ccc(NCc3cnc4[nH]c(N)nc(=O)c4n3)cc2)C(=O)O)CSSC[C@@H](C(=O)N[C@H](C(N)=O)[C@@H](C)O)NC(=O)[C@H](Cc2c[nH]c3ccccc23)NC(=O)[C@H](C(C)C)NC(=O)[C@H](CC(C)C)NC(=O)[C@H](CCC(=O)O)NC(=O)CNC1=O (some centres undefined)			inactive				Active	Active

— ChEMBL document CHEMBL4765225, “A peptide inhibitor of antibody-dependent cell-mediated cytotoxicity against EGFR/folate receptor-alpha double positive cells” (Medchemcomm, 2018)
